From ChEMBL document CHEMBL1208765, “Structure-activity relationship of lupane-triterpene glycosides from Acanthopanax koreanum on spleen lymphocyte IL-2 and IFN-gamma” (2010)

Experiments:
Assay type in all cases: functional
Splenocyte [1] = experiment: Immunomodulatory effect in mouse splenocyte assessed as increase in ConA-induced IFN-gamma release at 100 uM by lymphoproliferation test
Splenocyte [2] = experiment: Immunomodulatory effect in mouse splenocyte assessed as increase in ConA-induced IL2 release at 100 uM by lymphoproliferation test
Splenocyte [3] = experiment: Immunomodulatory effect in mouse splenocyte assessed as increase in ConA-induced IFN-gamma release at 25 uM by lymphoproliferation test
Splenocyte [4] = experiment: Immunomodulatory effect in mouse splenocyte assessed as increase in ConA-induced IFN-gamma release at 5 uM by lymphoproliferation test
Splenocyte [5] = experiment: Immunomodulatory effect in mouse splenocyte assessed as increase in ConA-induced IL2 release at 5 uM by lymphoproliferation test
Splenocyte [6] = experiment: Immunomodulatory effect in mouse splenocyte assessed as increase in ConA-induced IL2 release at 25 uM by lymphoproliferation test

SMILES | Activity (Splenocyte [1]) [pg/mL] | Activity (Splenocyte [2]) [pg/mL] | Activity (Splenocyte [3]) [pg/mL] | Activity (Splenocyte [4]) [pg/mL] | Activity (Splenocyte [5]) [pg/mL] | Activity (Splenocyte [6]) [pg/mL]
C=C(C)[C@@H]1CC[C@]2(C(=O)O[C@@H]3O[C@H](CO[C@@H]4O[C@H](CO)[C@@H](O[C@@H]5O[C@@H](C)[C@H](O)[C@@H](O)[C@H]5O)[C@H](O)[C@H]4O)[C@@H](O)[C@H](O)[C@H]3O)CC[C@]3(C)[C@H](CC[C@@H]4[C@@]5(C)CC[C@@H](O)[C@@](C)(C(=O)O)[C@@H]5CC[C@]43C)[C@@H]12 [ACANKOREOSIDE A] | 4.57 | 29.78 | 4.62 | 2.89 | 17.04 | 24.87
C=C(C)[C@@H]1CC[C@]2(C(=O)O[C@@H]3O[C@H](CO[C@@H]4O[C@H](CO)[C@@H](O[C@H]5O[C@@H](C)[C@H](O)[C@@H](O)[C@H]5O)[C@H](O)[C@H]4O)[C@@H](O)[C@H](O)[C@H]3O)CC[C@]3(C)[C@H](C[C@@H](O)[C@@H]4[C@@]5(C)CC[C@@H](O)[C@@](C)(C=O)[C@@H]5CC[C@]43C)[C@@H]12 [ACANKOREOSIDE D] | 5.29 | 41.34 | 4.62 | 3.69 | 19.26 | 25.32
C=C(CO)[C@@H]1CC[C@]2(C(=O)O[C@H]3O[C@@H](CO[C@H]4O[C@@H](CO)[C@H](O[C@H]5O[C@@H](C)[C@H](O)[C@@H](O)[C@H]5O)[C@@H](O)[C@@H]4O)[C@H](O)[C@@H](O)[C@@H]3O)CC[C@]3(C)[C@H](CC[C@@H]4[C@@]5(C)CC[C@@H](O)[C@@](C)(C(=O)O)[C@@H]5CC[C@]43C)[C@@H]12 [ACANKOREOSIDE F] | 4.2 | 27.57 | 4 | 3.3 | 16.09 | 23.47
C=C(CO)[C@@H]1CC[C@]2(C(=O)O[C@H]3O[C@@H](CO[C@H]4O[C@@H](CO)[C@H](O[C@H]5O[C@@H](C)[C@H](O)[C@@H](O)[C@H]5O)[C@@H](O)[C@@H]4O)[C@H](O)[C@@H](O)[C@@H]3O)CC[C@]3(C)[C@H](C[C@@H](O)[C@@H]4[C@@]5(C)CC[C@@H](O)[C@@](C)(C=O)[C@@H]5CC[C@]43C)[C@@H]12 [ACANKOREOSIDE I] | 2.59 | 14.76 | 4.18 | 1.25 | 10.07 | 12.91
C[C@@H]1O[C@H](O[C@@H]2[C@@H](O)[C@H](O)[C@@H](OC[C@@H]3O[C@H](OC(=O)[C@]45CC[C@@H]([C@](C)(O)CO)[C@@H]4[C@H]4CC[C@@H]6[C@@]7(C)CC[C@@H](O)[C@@](C)(C(=O)O)[C@@H]7CC[C@@]6(C)[C@]4(C)CC5)[C@@H](O)[C@H](O)[C@H]3O)O[C@H]2CO)[C@H](O)[C@H](O)[C@H]1O [ACANKOREOSIDE K] | 3.66 | 21.57 | 3.2 | 2.78 | 16.69 | 20.24
COC(OC)[C@@H](C)[C@@H]1CC[C@]2(C(=O)O[C@H]3O[C@@H](CO[C@H]4O[C@@H](CO)[C@H](O[C@H]5O[C@@H](C)[C@H](O)[C@@H](O)[C@H]5O)[C@@H](O)[C@@H]4O)[C@H](O)[C@@H](O)[C@@H]3O)CC[C@]3(C)[C@H](CC[C@@H]4[C@@]5(C)CC[C@@H](O)[C@@](C)(C(=O)O)[C@@H]5CC[C@]43C)[C@@H]12 [ACANKOREOSIDE L] | 6.07 | 74.47 | 3.71 | 3.53 | 20.68 | 45.06
C=C(CO)[C@@H]1CC[C@]2(C(=O)O[C@H]3O[C@@H](CO[C@H]4O[C@@H](CO)[C@H](O[C@H]5O[C@@H](C)[C@H](O)[C@@H](O)[C@H]5O)[C@@H](O)[C@@H]4O)[C@H](O)[C@@H](O)[C@@H]3O)CC[C@]3(C)[C@H](C[C@@H](O)[C@@H]4[C@@]5(C)CC[C@@H](O)[C@@](C)(C(=O)O)[C@@H]5CC[C@]43C)[C@@H]12 [ACANKOREOSIDE M] | 2.48 | 17.26 | 2.45 | 1.57 | 15.27 | 16.92
C=C(CO)[C@@H]1CC[C@]2(C(=O)O[C@H]3O[C@@H](CO[C@H]4O[C@@H](CO)[C@H](O[C@H]5O[C@@H](C)[C@H](O)[C@@H](O)[C@H]5O)[C@@H](O)[C@@H]4O)[C@H](O)[C@@H](O)[C@@H]3O)CC[C@]3(C)[C@H](C[C@@H](O)[C@@H]4[C@@]5(C)CC[C@@H](O[C@@H]6O[C@H](CO)[C@@H](O)[C@H](O)[C@H]6O)C(C)(C)[C@@H]5CC[C@]43C)[C@@H]12 [ACANKOREOSIDE N] | 1.92 | 19.06 | 1.55 | 1.5 | 17.11 | 13.66
CC(C)[C@]1(O)CC[C@]2(C(=O)O[C@H]3O[C@@H](CO[C@H]4O[C@@H](CO)[C@H](O[C@H]5O[C@@H](C)[C@H](O)[C@@H](O)[C@H]5O)[C@@H](O)[C@@H]4O)[C@H](O)[C@@H](O)[C@@H]3O)CC[C@]3(C)[C@H](CC[C@@H]4[C@@]5(C)CC[C@@H](O)[C@@](C)(C(=O)O)[C@@H]5CC[C@]43C)[C@H]21 [ACANKOREOSIDE O] | 2.44 | 16.3 | 1.68 | 1.81 | 13.89 | 11.82
CC(=O)[C@@H]1CC[C@]2(C(=O)O[C@H]3O[C@@H](CO[C@H]4O[C@@H](CO)[C@H](O[C@H]5O[C@@H](C)[C@H](O)[C@@H](O)[C@H]5O)[C@@H](O)[C@@H]4O)[C@H](O)[C@@H](O)[C@@H]3O)CC[C@]3(C)[C@H](CC[C@@H]4[C@@]5(C)CC[C@@H](O)[C@@](C)(C(=O)O)[C@@H]5CC[C@]43C)[C@@H]12 [ACANKOREOSIDES J] | 4.36 | 28.27 | 3.78 | 2.75 | 15.78 | 16.14
C=C(C)[C@@H]1CC[C@]2(C(=O)O[C@@H]3O[C@H](CO[C@@H]4O[C@H](CO)[C@@H](O[C@H]5O[C@@H](C)[C@H](O)[C@@H](O)[C@H]5O)[C@H](O)[C@H]4O)[C@@H](O)[C@H](O)[C@H]3O)CC[C@]3(C)[C@H](C[C@@H](O)[C@@H]4[C@@]5(C)CC[C@@H](O)C(C)(C)[C@@H]5CC[C@]43C)C12 (stereo partly specified) [ACANTRIFOSIDE A] | 5.41 | 50.66 | 5.23 | 4.55 | 20.07 | 25.57
